The source of these data is patent US12077503B2, “Substituted cyclic amides and their use as herbicides” (FMC CORPORATION, priority 2015, dated 2024).

Format in all cases: in vivo
In test [1] the test system is Kochia (Kochia scoparia). Put plainly: Test A preemergence. Conditions: Bassia scoparia, pre-emergence, 240 h, preemergence, read-out: Kochia plant response rating; for pest or weed control at 125 g/ha: 125 g ai/ha; for pest or weed control at 500 g/ha: 500 g ai/ha. Put shortly: (§1)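 Each rating is a visual injury score from 0 to 100 given about 10 d after treatment, judged against untreated controls kept alongside in the greenhouse. In loam soil–sand blend, seeds got a preemergence directed soil spray, while postemergence plants were 2 to 10 cm tall at spraying.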

Test [2] relates to barnyardgrass (Echinochloa crus-galli). The test can be described thus: Test A preemergence. Conditions: Echinochloa crus-galli, pre-emergence, 240 h, preemergence, read-out: Barnyardgrass plant response rating; for pest or weed control at 125 g/ha: 125 g ai/ha; for pest or weed control at 500 g/ha: 500 g ai/ha. In short, it runs like this:
as §1

Test [3] concerns giant foxtail (Setaria faberii). Put plainly: Test A preemergence. Conditions: Setaria faberi, pre-emergence, 240 h, preemergence, read-out: Foxtail, Giant plant response rating; for pest or weed control at 125 g/ha: 125 g ai/ha; for pest or weed control at 500 g/ha: 500 g ai/ha. In short, it runs like this: as §1
Test [4] relates to pigweed (Amaranthus retroflexus). The test can be described thus: Test A preemergence. Conditions: Amaranthus retroflexus, pre-emergence, 240 h, preemergence, read-out: Pigweed plant response rating; for pest or weed control at 125 g/ha: 125 g ai/ha; for pest or weed control at 500 g/ha: 500 g ai/ha.
Test [5] relates to ragweed (common ragweed, Ambrosia elatior). The test can be described thus: Test A preemergence. The settings on record: Ambrosia artemisiifolia, pre-emergence, 240 h, preemergence, read-out: Ragweed plant response rating; for pest or weed control at 125 g/ha: 125 g ai/ha; for pest or weed control at 500 g/ha: 500 g ai/ha. Put shortly: as §1
Test [6] deals with ryegrass, Italian (Italian ryegrass, Lolium multiflorum). Put plainly: Test A preemergence. Conditions: Lolium multiflorum, pre-emergence, 240 h, preemergence, read-out: Ryegrass, Italian plant response rating; for pest or weed control at 125 g/ha: 125 g ai/ha; for pest or weed control at 500 g/ha: 500 g ai/ha. In short, it runs like this:
as §1

In test [7] the test system is Galium (catchweed bedstraw, Galium aparine). Put plainly: Test A postemergence. The settings on record: Galium, post-emergence, 240 h; for pest or weed control at 125 g/ha: 125 g ai/ha. In short, it runs like this:
as §1

For test [8], the system named is Kochia (Kochia scoparia). Put plainly: Test A postemergence. The settings on record: Bassia scoparia, post-emergence, 240 h; for pest or weed control at 125 g/ha: 125 g ai/ha. In short, it runs like this: as §1
Test [9] deals with giant foxtail (Setaria faberii). The test can be described thus: Test A postemergence. The settings on record: Setaria faberi, post-emergence, 240 h; for pest or weed control at 125 g/ha: 125 g ai/ha. In short, it runs like this:
as §1

Test [10] relates to pigweed (Amaranthus retroflexus). Put plainly: Test A postemergence. The settings on record: Amaranthus retroflexus, post-emergence, 240 h; for pest or weed control at 125 g/ha: 125 g ai/ha. Put shortly:
as §1

Test [11] has as its system wheat (Triticum aestivum). Put plainly: Test A postemergence. The settings on record: Triticum aestivum, post-emergence, 240 h, 125 g ai/ha. In short, it runs like this: as §1
Test [12] relates to barnyardgrass (Echinochloa crus-galli). The test can be described thus: Test B flooded paddy test. Conditions: Echinochloa crus-galli, Flood, 250 g ai/ha, read-out: Barnyardgrass plant response rating. Put shortly:
(§2)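 Response scored visually against untreated controls, 0 = no effect and 100 = complete control, 13–15 d after treatment in the greenhouse. Compounds added to paddy water held 3 cm above soil surface. Treatment given at 2-leaf stage.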

Test [13] relates to ducksalad (Heteranthera limosa). The test can be described thus: Test B flooded paddy test. Conditions: Heteranthera limosa, Flood, 250 g ai/ha, read-out: Ducksalad plant response rating. Put shortly:
as §2

Another test relates to rice (Oryra sativa). The test can be described thus: Test B flooded paddy test. The settings on record: Oryza sativa, Flood, 250 g ai/ha, read-out: Rice plant response rating. Put shortly: as §2
Test [14] deals with sedge, umbrella (small-flower umbrella sedge, Cyperus difformis). The test can be described thus: Test B flooded paddy test. Conditions: Cyperus difformis, Flood, 250 g ai/ha, read-out: Sedge, Umbrella plant response rating. In short, it runs like this:
as §2

[15] abbreviates: 0 to 100 scale where 0 is no effect and 100 is complete control.
The mark [16] stands for this setting: visual injury rating about 10 d after treatment, 0 to 100 scale (0 no effect, 100 complete control).
Where [17] appears, read: scale of 0 to 100 where 0 is no effect and 100 is complete control.
The mark [18] stands for this setting: visual injury rating, 0 to 100 scale where 0 is no effect and 100 is complete control, approximately 10 d.

Where two headings read alike, the source gives them in different places.

As for `O=C(Nc1cccc(Cl)c1F)[C@H]1C(=O)N(C2CC2)CC[C@@H]1c1cccc(C(F)(F)F)c1` [Compound 926], the pest or weed control at 125 g/ha in the test on Kochia (Kochia scoparia) [1] (setting [15]) stood at 0%; in test [2] (setting [15]), 30%; in [3] (setting [15]), 80%; in [4] (setting [15]), 0%; in test [5] (setting [15]), 0%; in [6] (setting [15]) it was 0%. Further, the pest or weed control at 125 g/ha in test [7] (Postemergence, visual injury after approximately 10 d, 0 to 100 scale where 0 is no effect and 100 is complete control, read-out: Plant response rating, Galium) is 0%; with Kochia (Kochia scoparia) [8] (Postemergence, visual injury after approximately 10 d, 0 to 100 scale where 0 is no effect and 100 is complete control, read-out: Plant response rating, Kochia) it was 0%; in test [9] (Postemergence, visual injury after approximately 10 d, 0 to 100 scale where 0 is no effect and 100 is complete control, read-out: Plant response rating, Foxtail, Giant), 40%; in [10] (Postemergence, visual injury after approximately 10 d, 0 to 100 scale where 0 is no effect and 100 is complete control, read-out: Plant response rating, Pigweed), 0%. For the same compound, the pest or weed control at 500 g/ha with Kochia (Kochia scoparia) [1] (setting [16]) was 0%; in [2] (setting [16]), 90%; in test [3] (setting [16]), 90%; in [4] (setting [16]), 0%; in test [5] (setting [16]) it was 0%; in test [6] (setting [16]) it was 0%. Further, in [11] (Postemergence, visual injury after approximately 10 d, 0 to 100 scale where 0 is no effect and 100 is complete control, read-out: Plant response rating, Wheat), the plant injury at 125 g/ha was 0%. Moreover, the pest or weed control at 250 g/ha (in test [12] (setting [17]); in test [13] (setting [17]); with rice (Oryra sativa) (setting [17]); in test [14] (setting [17])) was 0% throughout.

Regarding `O=C1NC[C@H](c2ccc(C(F)(F)F)cc2)C1C(=O)Nc1c(F)cccc1CO` (stereo partly shown) [Compound 1243], the pest or weed control at 125 g/ha (in the test with Kochia (Kochia scoparia) [1] (setting [18]); in test [2] (setting [18]); in [3] (setting [18]); in test [4] (setting [18]); in test [5] (setting [18]); in [6] (setting [18])) was 0% each time. Besides, the pest or weed control at 125 g/ha was 0% in test [7] (postemergence, visual injury vs untreated controls after approx. 10 d, 0 = no effect, 100 = complete control, read-out: Galium plant response rating (0 to 100 scale)); 0% with Kochia (Kochia scoparia) [8] (postemergence, visual injury vs untreated controls after approx. 10 d, 0 = no effect, 100 = complete control, read-out: Kochia plant response rating (0 to 100 scale)); 0% in [9] (postemergence, visual injury vs untreated controls after approx. 10 d, 0 = no effect, 100 = complete control, read-out: Foxtail, Giant plant response rating (0 to 100 scale)); 0% in test [10] (postemergence, visual injury vs untreated controls after approx. 10 d, 0 = no effect, 100 = complete control, read-out: Pigweed plant response rating (0 to 100 scale)). Further, the pest or weed control at 500 g/ha (with Kochia (Kochia scoparia) [1] (setting [15]); in [2] (setting [15]); in test [3] (setting [15]); in test [4] (setting [15]); in test [5] (setting [15]); in [6] (setting [15])) was 0% in each case. Moreover, the pest or weed control at 500 g/ha in test [7] (500 g ai/ha, postemergence, 0 to 100 scale, 0 is no effect, 100 is complete control, read-out: Galium plant response rating) was found to be 0%; in the test with Kochia (Kochia scoparia) [8] (500 g ai/ha, postemergence, 0 to 100 scale, 0 is no effect, 100 is complete control, read-out: Kochia plant response rating), 0%; in test [9] (500 g ai/ha, postemergence, 0 to 100 scale, 0 is no effect, 100 is complete control, read-out: Foxtail, Giant plant response rating), 0%; in [10] (500 g ai/ha, postemergence, 0 to 100 scale, 0 is no effect, 100 is complete control, read-out: Pigweed plant response rating), 0%. Also, the plant injury at 125 g/ha in test [11] (postemergence, visual injury vs untreated controls after approx. 10 d, 0 = no effect, 100 = complete control, read-out: Wheat plant response rating (0 to 100 scale)) came out at 0%. Further, the pest or weed control at 250 g/ha (in test [12] (setting [15]); in test [13] (setting [15]); in the test with rice (Oryra sativa) (setting [15]); in test [14] (setting [15])) was 0% in each case.
